In US4367339A, “Substituted N-nitroaniline compounds and inorganic and organic salts thereof useful for enhancing auxiliary branching, canopy flowering and crop yield of plant and as lodging inhibitors therefor” (priority 1980, dated 1983):
Structures can show the parent of a compound that is named as a salt.

How the values were obtained:
[1] = system: soybean (Glycine max) Adelphia; assay: Dwarfing and stem stiffening of soybeans (plant height, greenhouse, foliar spray); assay type: in vivo; conditions: three weeks after spraying
Description: In the following tests, test compounds are dissolved or dispersed in acetone-water (1:1) mixtures at the final concentration corresponding to the kg/ha rates indicated in the table below. The solution also contains 0.25% v/v colloidal BIOFILM® (a product of Colloidal Products Corp.) which is a mixture of alkyl aryl polyethoxyethanol, free and combined fatty acids, glycol ethers, dialkylbenzene carboxylate and 2-propanol.
The plant species used in these tests are barley (Hordeum vulgare), (Mexico) and soybean (Glycine max)Adelphia.
The solution or dispersion of the compound under test is sprayed at a rate of 747 l/ha with a moving nozzle along an overhead stationary track. The spray nozzle moves at a constant speed over the plants.
The plants are grown in plastic pots, and are well established at the time of treatment. The seedlings of barley are 10 to 20 cm in height, while the seedlings of soybeans are at the second to third trifoliate stage. Plants are watered prior to treatment and then sprayed to provide the kg/ha rate of test compound desired. After spraying the plants are placed on greenhouse benches and watered and fertilized in accordance with normal greenhouse procedures.
Three weeks after spraying the plants are measured and harvested. Harvesting is done at the boot stage. All treatments are replicated six times and comparisons are made against untreated controls. Data obtained are reported in Table VI below as percent reduction in plant height over untreated controls.

[2] = system: soybeans (Glycine max) Adelphia variety; assay: Increasing axillary branching and improving the canopy of broad leaf plants (soybeans); assay type: in vivo, soybean (Glycine max); conditions: three weeks after treatment
From the text: In these tests seedling soybean plants approximately three weeks old, and grown in plastic pots to the 2nd to 3rd trifoliate stage, are sprayed with solutions or dispersions of test compound prepared as described in Example 7 above. The same spraying apparatus, described in Example 7 above, is used and after spraying the plants are placed on greenhouse benches and watered and fertilized. Three weeks after treatment the plants are examined to determine what effect the application of test compound has had on the axillary branching and canopy development of the treated plants.
Increased axillary branching and improved canopy are biological responses which are highly advantageous in the growing of ornamental plants. These responses also have advantage in many crops since increased branching may result in the greater production of fruit, while improved canopy tends to shade and suppress the growth of undesirable weeds that compete with the crops for sunlight, water and plant nutrients. Data obtained are reported in table VII below where axillary branching and canopy are reported as percent increase over untreated controls.

[3] = system: barley (Hordeum vulgare, var. Georgie); assay: Antilodging effects on barley; assay type: in vivo; design: key to Tiller formation / Stem stiffness: 5 = no increase over controls, 3 = moderate significant increase; conditions: for Stem stiffness / Tiller formation: control 5; for Weight Dry: control 5.2; for Weight Fresh: control 49.1; for Height: control 53.1; for Phytotoxicity: three weeks after spraying
Description: In this experiment the procedure of Example 7 is repeated excepting that the crop used was barley (Hordeum vulgare, var. Georgie; European lodging prone variety). The plants are treated at the 3-4 leaf stage. Plants are watered prior to treatment and then sprayed to provide the kg/ha rate of test compound desired. After spraying the plants are placed on greenhouse benches and watered and fertilized in accordance with normal greenhouse procedures.
Three weeks after spraying the plants are measured and harvested. All treatments are replicated six times and companions are made against untreated controls.
The following rating system is used:
5=No increase over controls
3=Moderate, significant increase over controls.

Compound: 1,2-Dimethyl-3,5-diphenylpyrazolium salt with 2,6-dibromo-α,α,α-trifluoro-N--aci-nitro-o-toluidine
- % Reduction in Plant Height over untreated controls ([1]; rate 0.125 kg/ha): > 10%
- % Reduction in Plant Height over untreated controls ([1]; rate 0.25 kg/ha): > 15%
- % Reduction in Plant Height over untreated controls ([1]; rate 0.5 kg/ha): > 20%

Compound: 3-(p-Fluorophenyl)-1,2-dimethyl-3,5-diphenylpyrazolium salt with 2,4,6-tribromo-N--aci-nitroaniline
- % Increase in Plant Canopy over untreated controls ([2]; rate 0.125 kg/ha): normal
- % Increase in axillary branching over untreated controls ([2]; rate 0.125 kg/ha): normal
- % Increase in axillary branching over untreated controls ([2]; rate 0.5 kg/ha): normal

Compound: Cc1cc(C)c([N-][N+](=O)[O-])c(C)c1.Cn1c(-c2ccccc2)cc(-c2ccccc2)[n+]1C [1,2-Dimethyl-3,5-diphenylpyrazolium salt with 2,4,6-Trimethyl-N--aci-nitroaniline]
- % Reduction in Plant Height over untreated controls ([1]; rate 0.125 kg/ha): slight increase
- % Reduction in Plant Height over untreated controls ([1]; rate 0.25 kg/ha): > 5%
- % Reduction in Plant Height over untreated controls ([1]; rate 0.5 kg/ha): > 10%
- % Increase in Plant Canopy over untreated controls ([2]; rate 0.125 kg/ha): normal
- % Increase in axillary branching over untreated controls ([2]; rate 0.125 kg/ha): normal

Compound: Cn1c(-c2ccccc2)cc(-c2ccccc2)[n+]1C.O=[N+]([O-])[N-]c1c(Cl)cc(Cl)cc1Cl [1,2-Dimethyl-3,5-diphenylpyrazolium salt with 2,4,6-trichloro-N--aci-nitroaniline]
- % Reduction in Plant Height over untreated controls ([1]; rate 0.125 kg/ha): > 10%
- % Reduction in Plant Height over untreated controls ([1]; rate 0.25 kg/ha): > 15%
- % Reduction in Plant Height over untreated controls ([1]; rate 0.5 kg/ha): > 25%

Compound: Cn1c(-c2ccccc2)cc(-c2ccccc2)[n+]1C.O=[N+]([O-])[N-]c1c(Br)cc(Cl)cc1Br [1,2-Dimethyl-3,5-diphenylpyrazolium salt with 2,6-dibromo-4-chloro-N--aci-nitroaniline]
- % Reduction in Plant Height over untreated controls ([1]; rate 0.125 kg/ha): > 25%
- % Reduction in Plant Height over untreated controls ([1]; rate 0.25 kg/ha): > 30%
- % Reduction in Plant Height over untreated controls ([1]; rate 0.5 kg/ha): > 40%
- % Increase in Plant Canopy over untreated controls ([2]; rate 0.125 kg/ha): normal

Compound: O=[N+]([O-])Nc1c(Br)cc(Br)cc1Br [1-Hexadecylpyridinium salt with 2,4,6-tribromo-N-- aci-nitro] [1-Hexadecylpyridinium salt with 2,4,6-tribromo-N-- aci-nitroaniline]
- % Reduction in Plant Height over untreated controls ([1]; rate 0.125 kg/ha): > 35%
- % Reduction in Plant Height over untreated controls ([1]; rate 0.25 kg/ha): > 35%
- % Reduction in Plant Height over untreated controls ([1]; rate 0.5 kg/ha): > 50%

Compound: O=[N+]([O-])Nc1c(Br)cc(Br)cc1Br [1-Hexadecylpyridinium salt with 2,4,6-tribromo-N--aci-nitroa]
- % Increase in Plant Canopy over untreated controls ([2]; rate 0.125 kg/ha): normal
- % Increase in axillary branching over untreated controls ([2]; rate 0.125 kg/ha): normal
- % Increase in axillary branching over untreated controls ([2]; rate 0.25 kg/ha): normal
- % Increase in axillary branching over untreated controls ([2]; rate 0.5 kg/ha): normal

Compound: O=[N+]([O-])Nc1c(Br)cc(Br)cc1Br [2,4,6-Tribromo-N--nitroaniline, Calcium salt]
- % Increase in Plant Canopy over untreated controls ([2]; rate 0.25 kg/ha, listed as 2,4,6-Tribromo-N--aci-nitroaniline calcium salt (2:1), Calcium salt): slight reduction
- % Increase in Plant Canopy over untreated controls ([2]; rate 0.5 kg/ha, listed as 2,4,6-Tribromo-N--aci-nitroaniline calcium salt (2:1), Calcium salt): moderate reduction

Compound: O=[N+]([O-])Nc1c(Br)cc(Br)cc1Br [2,4,6-Tribromo-N--nitroaniline, diisopropylamine (1:1)salt]
- % Increase in Plant Canopy over untreated controls ([2]; rate 0.5 kg/ha): slight reduction

Compound: O=[N+]([O-])Nc1c(Br)cc(Br)cc1Br [2,4,6-Tribromo-N--nitroaniline, magnesium salt]
- % Increase in Plant Canopy over untreated controls ([2]; rate 0.25 kg/ha, listed as 2,4,6-Tribromo-N--aci-nitroaniline, magnesium salt (2:1)): moderate reduction
- % Increase in Plant Canopy over untreated controls ([2]; rate 0.5 kg/ha, listed as 2,4,6-Tribromo-N--aci-nitroaniline, magnesium salt (2:1)): moderate reduction

Compound: O=[N+]([O-])Nc1c(Br)cc(Br)cc1Br [2,4,6-Tribromo-N--nitroaniline, triethylamine (1:1)salt]
- % Increase in axillary branching over untreated controls ([2]; rate 0.125 kg/ha): normal
- % Increase in Plant Canopy over untreated controls ([2]; rate 0.25 kg/ha): slight reduction
- % Increase in Plant Canopy over untreated controls ([2]; rate 0.5 kg/ha): slight reduction

Compound: Cn1c(-c2ccccc2)cc(C2CCCCC2)[n+]1C.O=[N+]([O-])[N-]c1c(Br)cc(Br)cc1Br [3-Cyclohexyl-1,2-dimethyl-5-phenylpyrazolium salt with 2,4,6-tribromo-N--aci-nitroaniline]
- % Reduction in Plant Height over untreated controls ([1]; rate 0.125 kg/ha): > 10%
- % Reduction in Plant Height over untreated controls ([1]; rate 0.25 kg/ha): > 20%
- % Reduction in Plant Height over untreated controls ([1]; rate 0.5 kg/ha): > 40%
- % Increase in Plant Canopy over untreated controls ([2]; rate 0.5 kg/ha): slight reduction

Compound: O=[N+]([O-])Nc1c(Br)cc(Br)cc1Br [Benzyltriethylammonium salt with 2,4,6-tribromo-N--aci-nitro] [Benzyltriethylammonium salt with 2,4,6-tribromo-N--aci-nitroaniline]
- % Reduction in Plant Height over untreated controls ([1]; rate 0.125 kg/ha): > 25%
- % Reduction in Plant Height over untreated controls ([1]; rate 0.25 kg/ha): > 35%
- % Reduction in Plant Height over untreated controls ([1]; rate 0.5 kg/ha): > 50%
- % Increase in Plant Canopy over untreated controls ([2]; rate 0.125 kg/ha): normal
- % Increase in axillary branching over untreated controls ([2]; rate 0.125 kg/ha): normal
- % Increase in axillary branching over untreated controls ([2]; rate 0.25 kg/ha): normal

Compound: O=[N+]([O-])Nc1c(Br)cc(Br)cc1Br [Dibenzylamine(1:1)with 2,4,6-tribromo-N--nitroaniline]
- % Reduction in Plant Height over untreated controls ([1]; rate 0.125 kg/ha): > 25%
- % Reduction in Plant Height over untreated controls ([1]; rate 0.25 kg/ha): > 35%
- % Reduction in Plant Height over untreated controls ([1]; rate 0.5 kg/ha): > 50%

Compound: O=[N+]([O-])Nc1c(Br)cc(Br)cc1Br [Dodecylamine with 2,4,6-tribromo-N--nitroaniline]
- % Reduction in Plant Height over untreated controls ([1]; rate 0.125 kg/ha): > 15%
- % Reduction in Plant Height over untreated controls ([1]; rate 0.25 kg/ha): > 25%
- % Reduction in Plant Height over untreated controls ([1]; rate 0.5 kg/ha): > 35%

Compound: O=[N+]([O-])Nc1c(Br)cccc1Br [Tallowamine compound with 2,6-dibromo-N--nitroaniline]
- Stem stiffness ([3]; rate 0.25 kg/ha): 4
- Tiller formation ([3]; rate 0.25 kg/ha): 5 (No increase over controls)
- Weight Dry ([3]; rate 0.25 kg/ha): 6.8 g
- Weight Fresh ([3]; rate 0.25 kg/ha): 62.3 g
- Height ([3]; rate 0.25 kg/ha): 54.7 cm
- Phytotoxicity ([3]; rate 0.25 kg/ha): 5 (No increase over controls)
- Stem stiffness ([3]; rate 0.5 kg/ha): 4
- Tiller formation ([3]; rate 0.5 kg/ha): 4
- Weight Dry ([3]; rate 0.5 kg/ha): 7.5 g
- Weight Fresh ([3]; rate 0.5 kg/ha): 60.1 g
- Height ([3]; rate 0.5 kg/ha): 48.5 cm
- Phytotoxicity ([3]; rate 0.5 kg/ha): 5 (No increase over controls)
- Stem stiffness ([3]; rate 1.0 kg/ha): 4
- Tiller formation ([3]; rate 1.0 kg/ha): 4
- Weight Fresh ([3]; rate 1.0 kg/ha): 55.9 g
- Height ([3]; rate 1.0 kg/ha): 48.7 cm
- Phytotoxicity ([3]; rate 1.0 kg/ha): 5 (No increase over controls)

Compound: CCc1cccc(C(C)C)c1N[N+](=O)[O-] [Tallowamine compound with 2-ethyl-6-isopropyl-N--nitroanilin] [Tallowamine compound with 2-ethyl-6-isopropyl-N--nitroaniline]
- Stem stiffness ([3]; rate 0.25 kg/ha): 4
- Tiller formation ([3]; rate 0.25 kg/ha): 4
- Weight Fresh ([3]; rate 0.25 kg/ha): 49.2 g
- Height ([3]; rate 0.25 kg/ha): 45.0 cm
- Phytotoxicity ([3]; rate 0.25 kg/ha): 5 (No increase over controls)
- Stem stiffness ([3]; rate 0.5 kg/ha): 4
- Tiller formation ([3]; rate 0.5 kg/ha): 4
- Weight Fresh ([3]; rate 0.5 kg/ha): 47.1 g
- Height ([3]; rate 0.5 kg/ha): 41.7 cm
- Phytotoxicity ([3]; rate 0.5 kg/ha): 5 (No increase over controls)
- Stem stiffness ([3]; rate 1.0 kg/ha): 4
- Tiller formation ([3]; rate 1.0 kg/ha): 4
- Weight Fresh ([3]; rate 1.0 kg/ha): 52.4 g
- Height ([3]; rate 1.0 kg/ha): 45.7 cm
- Phytotoxicity ([3]; rate 1.0 kg/ha): 5 (No increase over controls)

Compound: CCCC[P+](CCCC)(CCCC)Cc1ccc(Cl)cc1Cl.O=[N+]([O-])[N-]c1c(Br)cc(Br)cc1Br [Tributyl(2,4-dichlorobenzyl) phosphonium salt with 2,4,6-tribromo-N--aci-nitroaniline]
- % Increase in Plant Canopy over untreated controls ([2]; rate 0.125 kg/ha): normal
- % Increase in axillary branching over untreated controls ([2]; rate 0.125 kg/ha): normal
- % Increase in Plant Canopy over untreated controls ([2]; rate 0.5 kg/ha): moderate reduction

Compound: Tributyl(2,4-dichlorobenzyl)phosphonium salt with aniline
- % Reduction in Plant Height over untreated controls ([1]; rate 0.125 kg/ha): > 8%
- % Reduction in Plant Height over untreated controls ([1]; rate 0.25 kg/ha): > 25%
- % Reduction in Plant Height over untreated controls ([1]; rate 0.5 kg/ha): > 50%
